In brackets after ≈: the same amount, converted by molar mass. Like-named read-outs stand apart in the source and are kept apart here.
Experiments:
Assay type in all cases: cell-based, Propionibacterium acnes
HL053PA1 strain (RT4) = assay: MIC by broth microdilution method, HL053PA1 strain; conditions: Cutibacterium acnes, read-out: MIC against acne bacterium strain HL053PA1 strain (RT4)
Description: (§1) An MIC is measured herein according to the broth microdilution method which is the standard method of Japanese Society of Chemotherapy.
(§2) The antibacterial activity of a test substance was determined based on the minimum inhibitory concentration (MIC). An MIC was measured according to the broth microdilution method which is the standard method of Japanese Society of Chemotherapy.
(§3) One-loopful of each acne bacterium strain listed in Table 1 was scraped off and inoculated into 5 mL of a GAM broth slant agar medium (pH 7.0, Nissui Pharmaceutical Co., Ltd.).
The inoculated acne bacterium strain was precultured at 37° C. in a nitrogen atmosphere (anaerobic condition) for 48 hours. The precultured microbial cells were diluted in a modified GAM broth liquid medium (pH 6.0) to a concentration of 5.0×10^4 cfu/mL (viable cell count per OD660=1 is 2.0×10^9 cfu/mL), to prepare strain suspensions.
(§4) Each fatty acid (Tokyo Chemical Industry Co., Ltd.) listed in Table 2 was dissolved in dimethylsulfoxide (DMSO) as a solvent such that the concentration became 10,000 μg/mL, and used as a test substance.
(§5) Each of strain suspensions (5.0×10^4 cfu/mL) was aliquoted in a 96-well round bottom microplate, each of the test substance (fatty acid concentration 10,000 μg/mL) was added at a 1/10 volume to the aliquot and mixed to prepare measurement samples (fatty acid concentration: 1,000 μg/mL). Measurement samples in 2-fold dilution series were prepared using the strain suspension (fatty acid concentration from 0.48 to 1,000 μg/mL).
[…] The presence or absence of a precipitation of test microbial cells after the incubation was examined and the minimum concentration at which the precipitation of microbial cells […] was regarded as the MIC (μg/mL) of the test substance against the acne bacterium strain.

HL110PA3 strain (RT6) = assay: MIC by broth microdilution method, HL110PA3 strain; conditions: Cutibacterium acnes, read-out: MIC against acne bacterium strain HL110PA3 strain (RT6)
[1] = test system: HL053PA1 strain (RT4) and HL043PA1 strain (RT5) versus HL110PA3 strain (RT6); assay: Strain-selective antibacterial activity (average of MICRT6/MICRT4 and MICRT6/MICRT5)
Text: Herein, “acne strain-selective antibacterial activity” or “strain-selective antibacterial activity” means an index indicating better inhibition of growth of a dominant strain in acne patients compared to that of a dominant strain in healthy subjects. It is expressed by the average value of the values (MICRT6/MICRT4, and MICRT6/MICRTS) obtained by dividing the minimum inhibitory concentration (MIC) of an object substance with respect to the dominant strain in healthy subjects (RT6 strain) (MICRT6) respectively by the MIC of the object substance with respect to the dominant strain in acne patients (RT4 strain) (MICRT4), and by the MIC of the object substance with respect to the dominant strain in acne patients (RT5 strain) (MICRT5).
The strain-selective antibacterial activity of each test substance (Table 2, right-most column) was evaluated based on the following rating criteria (Table 3). When the strain-selective antibacterial activity is indicated by a numerical range, the rating was based on the minimum value thereof.

HL043PA1 strain (RT5) = assay: MIC by broth microdilution method, HL043PA1 strain; conditions: Cutibacterium acnes, read-out: MIC against acne bacterium strain HL043PA1 strain (RT5)
Description: as §1, §2, §3
The inoculated acne bacterium strain was precultured at 37° C. in a nitrogen atmosphere (anaerobic condition) for 48 hours. […]
as §4, §5
The measurement samples were incubated under an anaerobic condition at 37° C. for 2 days. The presence or absence of a precipitation of test microbial cells after the incubation was examined and the minimum concentration at which the precipitation of microbial cells […] was regarded as the MIC (μg/mL) of the test substance against the acne bacterium strain.

[2] = control antibacterial agents, Comparative Example 1, method as Example 1
[3] = control antibacterial agents, Comparative Example 1
[4] = control antibiotics, Comparative Example 2, method as Example 1
[5] = control antibiotics, Comparative Example 2, method as Example 1, LOD = MIC <0.48 ng/mL
[6] = control antibiotics, Comparative Example 2, for LOD calculated using 0.48 ng/mL as MIC of the RT6 strain

SMILES	MIC (HL053PA1 strain (RT4); [4]) [µg/mL]	MIC (HL110PA3 strain (RT6); [5]) [µg/mL]	MIC (HL043PA1 strain (RT5); [4]) [µg/mL]	MIC (HL053PA1 strain (RT4); [2]) [µg/mL]	MIC (HL110PA3 strain (RT6); [2]) [µg/mL]	Strain-selective antibacterial activity [1, 3]	MIC (HL043PA1 strain (RT5); [2]) [µg/mL]	Strain-selective antibacterial activity [1, 6]
CC(C)c1cccc(=O)c(O)c1 [Hinokitiol, reference compound]				31.3 (≈ 191 µM)	31.3 (≈ 191 µM)	1.0	31.3 (≈ 191 µM)	
CCO [Ethanol, reference compound]				> 1000	500 (≈ 10900 µM)	<0.75	500 (≈ 10900 µM)	
CCC[C@@H]1C[C@@H](C(=O)N[C@@H]([C@H]2O[C@H](SC)[C@H](O)[C@@H](O)[C@H]2O)[C@H](C)Cl)N(C)C1 [Clindamycin, reference compound]	31 (≈ 72.9 µM)	0.031 (≈ 0.0729 µM)	63 (≈ 148 µM)					7.5 × 10^−4

Now from value to molecule, other results behind:

MIC (HL053PA1 strain (RT4); [4]) [µg/mL]	MIC (HL110PA3 strain (RT6); [5]) [µg/mL]	MIC (HL043PA1 strain (RT5); [4]) [µg/mL]	SMILES	MIC (HL053PA1 strain (RT4); [2]) [µg/mL]	MIC (HL110PA3 strain (RT6); [2]) [µg/mL]	Strain-selective antibacterial activity [1, 3]	MIC (HL043PA1 strain (RT5); [2]) [µg/mL]	Strain-selective antibacterial activity [1, 6]
0.031 (≈ 0.086 µM)	< 0.00048	0.031 (≈ 0.086 µM)	CC1CCc2c(N3CCC(O)CC3)c(F)cc3c(=O)c(C(=O)O)cn1c23 (centres unmarked) [Nadifloxacin, reference compound]					<1.5 × 10^−2
0.98 (≈ 2.21 µM)	0.00048 (≈ 0.00108 µM)	2 (≈ 4.5 µM)	C[C@H]1c2cccc(O)c2C(=O)C2=C(O)[C@]3(O)C(=O)C(C(N)=O)=C(O)[C@@H](N(C)C)[C@@H]3[C@@H](O)[C@@H]21 [Doxycycline, reference compound]					3.6 × 10^−4

Reference: patent US20190247353A1, “ACNE STRAIN-SELECTIVE ANTIBACTERIAL AGENT” (MOMOTANI JUNTENKAN CO., LTD., priority 2016, published 2019)
